# Target: P. falciparum apicoplast DNA polymerase (Pf-apPOL) (Plasmodium falciparum, UniProt Q8ILY1)
# Assay: Fluorescence-based high-throughput DNA polymerase assay (molecular beacon), primary screen and dose-response
# Format: biochemical
# Settings: for DNA Pol: unit not given, 90 min, 10 µM
# Experimental: The HT assay employs a molecular beacon, a stem-loop DNA template with a Cy3 dye and the Black Hole Quencher on the 3′ and 5′ ends of the DNA, respectively. Pf-apPOL concentration is based on a calculated absorptivity of ε280 = 56750 M^−1 cm^−1. Reactions were carried out at 25 °C, using Corning 3575 […] (well-volume, 20 µL). Assays testing for compound inhibition composed of reaction buffer (pH 7.9 in 50 mM potassium acetate, 20 mM Tris-acetate and 10 mM magnesium acetate), Pf-apPOL (20 nM), DNA substrate (20 nM), dNTPs (6 µM), and compound (10 µM in DMSO). The DNA and nucleotide substrates (dNTPs) were at concentrations of 20 nM and 6 µM, respectively, in the assay. Pf-apPOL was incubated in the reaction buffer with dNTPs and the compound of interest (10 µM, in the assay) at 25 °C for 10 min. The DNA substrate was then added and the reaction was allowed to proceed for 90 min at 25 °C.
# Each assay plate contained 16 negative controls (no Pf-apPOL, DMSO present) and 16 positive controls (Pf-apPOL present, no DMSO). The fluorescence of each well was determined using a BioTek Synergy Neo fluorescence plate reader using excitation and emission wavelengths of 555 and 570 nm, respectively.
# In the above, Min is the average of fluorescence emission of the negative controls (substrate only), Max the average fluorescence emission from the positive controls (enzyme + substrate), and Test the emission from the assays in the presence of compounds (enzyme + compound + substrates). […] […] The IC50 of each compound was determined using Equation (2): (2) IC50= Vmax/(1+ (I/IC50)^n)
# In the above, n measures cooperativity, with n > 1 indicating synergistic binding of more than a single molecule of the compound.
# To identify apPOL inhibitors we utilised our previously developed high-throughput DNA polymerase assay. The HT assay is based on a molecular beacon DNA template that forms a stem-loop with a Cy3 dye and the Black Hole Quencher on the 3′ and 5′ ends of the DNA, respectively. DNA polymerase activity extends an annealed primer through the stem region, displacing the fluorophore from the quencher, thereby increasing its fluorescence (Figure 1(A)). The assay accurately recapitulates the kinetic behaviour of apPOL, as measured through more conventional low-throughput gel-based assays. The Z′ factor for the assay described here was 0.9 across all plates (data not shown).
# Figure 1. High-throughput screening. (A) The fluorescent-based DNA polymerase assay used to screen the compound libraries. The DNA template strand is a hairpin loop with a primer annealed to the loop. The 3’ end of the primer is 11 bases away from the 6 bp duplex. Strand displacement activity of the DNA polymerase separates the Cy3 dye from the Black hole quencher leading to an increase in fluorescent signal. (B) The high-throughput assay workflow. The DNA polymerase is incubated with […] compound for 10 min prior to addition of the hairpin substrate. The reaction is quenched at 3 different time points and the fluorescent signal is measured and % inhibition is determined using the provided equation.
# P. falciparum apicoplast DNA polymerase (Pf-apPOL), sequence (Q8ILY1 entry or part of it): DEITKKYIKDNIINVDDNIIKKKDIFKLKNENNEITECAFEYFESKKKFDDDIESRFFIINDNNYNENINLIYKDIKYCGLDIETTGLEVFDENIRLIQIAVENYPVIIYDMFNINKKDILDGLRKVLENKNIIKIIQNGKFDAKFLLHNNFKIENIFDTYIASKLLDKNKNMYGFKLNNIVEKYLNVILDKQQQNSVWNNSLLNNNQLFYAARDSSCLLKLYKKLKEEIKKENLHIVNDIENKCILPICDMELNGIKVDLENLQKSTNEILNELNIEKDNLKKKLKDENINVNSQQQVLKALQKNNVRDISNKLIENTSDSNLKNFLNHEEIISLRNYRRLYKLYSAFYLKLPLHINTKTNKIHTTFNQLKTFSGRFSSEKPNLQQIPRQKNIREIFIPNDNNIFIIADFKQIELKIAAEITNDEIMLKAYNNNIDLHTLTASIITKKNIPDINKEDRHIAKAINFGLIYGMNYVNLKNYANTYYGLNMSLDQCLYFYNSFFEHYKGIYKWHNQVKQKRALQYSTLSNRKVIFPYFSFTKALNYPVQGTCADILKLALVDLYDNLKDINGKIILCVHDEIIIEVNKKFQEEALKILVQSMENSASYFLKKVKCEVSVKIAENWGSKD
smiles,measurement,setting,value
O=C1N/C(=N/c2ccccc2Cl)S/C1=C/c1ccc([N+](=O)[O-])o1 [KU0054524],% inhibition Apo pol 10',"DRC-1, concentration 2.5",7.564%
same,% inhibition Apo pol 10',"DRC-1, concentration 5",28.3365%
same,% inhibition Apo pol 10',"DRC-1, concentration 10",42.7276%
same,% inhibition Apo pol 10',"DRC-1, concentration 20",56.2802%
same,% inhibition Apo pol 10',"DRC-1, concentration 40",80.0033%
same,% inhibition Apo pol 10',"DRC-1, concentration 80",85.9961%
same,% inhibition Apol 90',"DRC-1, 90', concentration 2.5",2.857%
same,% inhibition Apol 90',"DRC-1, 90', concentration 5",16.2843%
same,% inhibition Apol 90',"DRC-1, 90', concentration 10",26.4398%
same,% inhibition Apol 90',"DRC-1, 90', concentration 20",38.2807%
same,% inhibition Apol 90',"DRC-1, 90', concentration 40",70.6237%
same,% inhibition Apol 90',"DRC-1, 90', concentration 80",84.7542%
same,% inhibition apPOL 180',"DRC-1, 180', concentration 2.5",-2.619%
same,% inhibition apPOL 180',"DRC-1, 180', concentration 5",9.438%
same,% inhibition apPOL 180',"DRC-1, 180', concentration 10",15.4402%
same,% inhibition apPOL 180',"DRC-1, 180', concentration 20",23.638%
same,% inhibition apPOL 180',"DRC-1, 180', concentration 40",57.9424%
same,% inhibition apPOL 180',"DRC-1, 180', concentration 80",81.189%
same,% inhibition Apo pol 5',"DRC-2, 5', concentration 10 (unit not given)",42%
same,% inhibition Apol 40',"DRC-2, 40', concentration 40 (unit not given)",58%
same,% inhibition ApPOL 90',"DRC-2, 90', concentration 10 (unit not given)",42%
same,% inhibition apPOL 180',"DRC-2, 180', concentration 10 (unit not given)",31%
same,% inhibition apPOL 180',"DRC-2, 180', concentration 20 (unit not given)",58%
same,% inhibition Apo pol 5',"DRC-2, 5', concentration 2.5",17%
same,% inhibition Apo pol 5',"DRC-2, 5', concentration 5",22%
same,% inhibition Apo pol 5',"DRC-2, 5', concentration 10",42%
same,% inhibition Apo pol 5',"DRC-2, 5', concentration 20",46%
same,% inhibition Apo pol 5',"DRC-2, 5', concentration 40",25%
same,% inhibition Apo pol 5',"DRC-2, 5', concentration 80",31%
same,% inhibition Apo pol 5',"DRC-2, 5', concentration 80 (unit not given)",31%
same,% inhibition Apol 40',"DRC-2, 40', concentration 2.5",14%
same,% inhibition Apol 40',"DRC-2, 40', concentration 5",21%
same,% inhibition Apol 40',"DRC-2, 40', concentration 10",45%
same,% inhibition Apol 40',"DRC-2, 40', concentration 20",62%
same,% inhibition Apol 40',"DRC-2, 40', concentration 40",58%
same,% inhibition Apol 40',"DRC-2, 40', concentration 80",61%
same,% inhibition ApPOL 90',"DRC-2, 90', concentration 2.5",11%
same,% inhibition ApPOL 90',"DRC-2, 90', concentration 5",16%
same,% inhibition ApPOL 90',"DRC-2, 90', concentration 10",42%
same,% inhibition ApPOL 90',"DRC-2, 90', concentration 20",63%
same,% inhibition ApPOL 90',"DRC-2, 90', concentration 40",65%
same,% inhibition ApPOL 90',"DRC-2, 90', concentration 80",68%
same,% inhibition apPOL 180',"DRC-2, 180', concentration 2.5",7%
same,% inhibition apPOL 180',"DRC-2, 180', concentration 5",8%
same,% inhibition apPOL 180',"DRC-2, 180', concentration 10",31%
same,% inhibition apPOL 180',"DRC-2, 180', concentration 20",58%
same,% inhibition apPOL 180',"DRC-2, 180', concentration 40",67%
same,% inhibition apPOL 180',"DRC-2, 180', concentration 80",73%
same,DNA Pol,primary screen value of the 186 hits,44
same,DNA Pol,"primary screen value, head ""DNA Pol""",44
COc1ccc(C(=O)N2CCc3c(nc4cc(-c5ccccc5Cl)[nH]n4c3=O)C2)cn1 [Molecule 26],IC50,"supplemental file 2, sheet IC50 nontoxic compounds, Pf-apPOL",9.65 µM

# Source: PMC9090415, “Discovery of small molecule inhibitors of Plasmodium falciparum apicoplast DNA polymerase” (Journal of Enzyme Inhibition and Medicinal Chemistry, 2022)
